Data on two compounds can be found in article PMC12638379, “An innovative approach to development of new pyrazolylquinolin-2-one hybrids as dual EGFR and BRAF^V600E inhibitors” (Molecular Diversity, 2025).

SMILES strings stand for the structures. Entries after “also recorded” stand apart in the source; their conditions may differ.

Series [1] relates to HOP-92 cells. In words: Cell cycle analysis (propidium iodide flow cytometry). The class given is cell-based, human. From the text: Research has been done on how the most powerful antitumor compound, 4e, affects the HOP-92 cell cycle’s growth and apoptosis.
Researcher : Dr.Mohamed Hawas email: mohhawwas80@gmail.com mob. 01151345909 Assay : Cell Cycle Analysis mohamedhassan.pharm.ast@azhr.edu.eg Samples : 02 samplescell line : ---Ref. : ---Date : 00-00-2022Reader : BD FACSCaliburKit used : ab139418_Propidium Iodide Flow Cytometry Kit/BDSolvent : DMSOAssay samples : Cell culture

The subject of series [2] is HOP-92 cells. As to the kind of experiment: Annexin V-FITC/PI apoptosis assay. The class given is cell-based, human. On the procedure:
Using the Annexin V-FITC/PI test, the tendency of compound 4e to cause apoptosis and its potential association with cytotoxic action were evaluated. The cells were labeled with annexin V-FITC/PI and cultured for 24 h to detect any signs of apoptosis. […] According to research on early and late apoptosis and DNA content (Figs. 9, 10), 4e with 3.4% necrosis is probably going to result in a large amount of apoptosis (Table 5 and Fig. 10).
Cell apoptosis were analyzed by the Annexin V-FITC Apoptosis Detection Kit (BioVision Research Products, USA). Thereafter, 1-5 x 10^5 cells was collected by centrifugation and resuspend in 500 μl of 1X Binding Buffer. Added 5 μl of Annexin V-FITC and 5 μl of propidium iodide (PI […], optional.). The cells incubated at room temperature for 5 min in the dark;Analyzed by Annexin V-FITC binding flow cytometric method (Ex = 488 nm; Em = 530 nm) usingFITC signal detector (usually FL1) and PI staining by the phycoerythrin emissionsignal detector (usually FL2).For adherent cells, we gently trypsinized and washed cells once with serum-containing mediabefore incubation with Annexin V-FITC (A.3-5).

The nature of series [3]: in vitro. Conditions: human, % viability.
The subject of series [4] is normal cell line WI-38. Conditions: human, 0.4 µM.

In the case of `C/C(=N\Nc1ccc(S(N)(=O)=O)cc1)c1cnn(-c2cc(=O)[nH]c3ccc(Br)cc23)c1C` [Compound 4e, (E)-4-(2-(1-(1-(6-bromo-2-oxo-1,2-dihydroquinolin-4-yl)-5-methyl-1H-pyrazol-4-yl)ethylidene)hydrazineyl)benzenesulfonamide], the “DNA content Comment” value in series [1] (HOP92 cells) is recorded as “cell growth arrest@ G1”. Further, the “DNA content %G2/M” value in series [1] (HOP92 cells, control 16.08) is 14.6%. For the same compound, the “DNA content %S” value in series [1] (HOP92 cells, control 35.66) is listed as 31.29%. For the same compound, the “DNA content %G0-G1” value in series [1] (HOP92 cells, control 48.26) came to 54.11%. In addition, in series [1] (HOP-92, 24 h at IC50), the “Comment (cell cycle arrest)” value is reported as “cell growth is arrested at the G1 phase; also recorded: cell cycle arrest at the G0-1 phase; also recorded: Cell growth arrest at G1phase”, the “DNA content % G0–G1” value was found to be 54.11%, the “DNA content %G2/M” value came to 14.6% and the “DNA content %S” value came to 31.3%. The “Apoptosis Late” value in series [2] (HOP92 cells, control 0.15) is on record as 11.28. Besides, in series [2] (HOP92 cells, control 0.69), the “Apoptosis Early” value was 22.91. Further, in series [2] (HOP92 cells, control 1.3), the Necrosis stood at 3.4. The “Apoptosis Total” value in series [2] (HOP92 cells, control 2.14) is 37.59. In addition, in series [2] (HOP-92, 24 h at IC50), the “Apoptosis Early” value was determined as 22.91%, the “Apoptosis Late” value was 11.28%, the “Apoptosis Total” value worked out at 37.59% and the Necrosis stood at 3.4%.
In series [3], `CN[C@@H]1C[C@H]2O[C@@](C)([C@@H]1OC)n1c3ccccc3c3c4c(c5c6ccccc6n2c5c31)C(=O)NC4` [Staurosporine, reference compound] displayed a viability at 0.4 µM of 84.6%, a viability at 6.3 µM of 56.2% and a viability at 25 µM of 46.8%. In addition, the viability at 1.6 µM in series [3] (WI38, 1.6uM (log conc. 0.19)) stood at 68.1%. Also, the viability at 100 µM in series [3] (WI38, 100uM (log conc. 2)) was determined as 37.4%. Besides, the “% viability” value in series [4] amounted to 84.55%.

A word on the viability: it is a per cent measure of how many cells are alive, often set against a control. A low value points to a greater loss of cells.
